Results taken from the supplement of paper PMC5579334.
± gives the standard deviation of the averaged measurements.

Key:
[1] = test system: STS26T; assay: % inhibition of CellTiter-Glo viability at highest tested concentration (72 h), relative to DMSO and benzethonium chloride controls; higher = more inhibition
In short: (§1)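 After seeding 750–1000 cells per well of MPNST cell lines or primary human Schwann cells into 384-well plates preprinted with each compound at five concentrations in 10-fold steps, plates were kept 72 h at 37 °C, 5% CO2. Viability was read as CellTiter-Glo ATP luminescence relative to vehicle and positive-control wells, with duplicates averaged where present. The data were fitted with four-parameter logistic models. Drug sensitivity score and relative IC50, censored at the top concentration, derive from the fits, and percent inhibition refers to the top concentration.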

[2] = test system: HS-Sch-2; assay: as above
In short: as §1

[3] = test system: S462; assay: as above
In short: as §1

[4] = test system: HS-PSS; assay: as above
In short: as §1

[5] = test system: S1507-2; assay: as above
In short: as §1

[6] = test system: YST-1; assay: as above
In short: as §1

[7] = test system: ST8814; assay: as above
In short: as §1

[8] = test system: HSC2 (primary human Schwann cells); assay: as above
In short: as §1

[9] = test system: HSC1 (primary human Schwann cells); assay: as above
In short: as §1

[10] = test system: STS26T; assay: drug sensitivity score (DSS, CellTiter-Glo viability, 72 h) (DSS (dimensionless)); higher = more sensitive; extreme values may be limits of the assay
In short: as §1

[11] = test system: HS-Sch-2; assay: as above
In short: as §1

[12] = test system: S462; assay: as above
In short: as §1

[13] = test system: HS-PSS; assay: as above
In short: as §1

[14] = test system: S1507-2; assay: as above
In short: as §1

[15] = test system: YST-1; assay: as above
In short: as §1

[16] = test system: ST8814; assay: as above
In short: as §1

[17] = test system: HSC2 (primary human Schwann cells); assay: as above
In short: as §1

[18] = test system: HSC1 (primary human Schwann cells); assay: as above
In short: as §1

[19] = test system: STS26T; assay: drug sensitivity score (DSS, CellTox-Green cytotoxicity, 72 h) (DSS (dimensionless)); higher = more cytotoxic; extreme values may be limits of the assay
In short: (§2)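 For 72 h at 37 °C, MPNST cell lines and primary human Schwann cells were exposed in 384-well plates to five 10-fold compound dilutions. CellTox-Green, added before seeding at a final 1:1000 dilution, gave fluorescence from DNA released by disrupted cells. Signals were scaled to vehicle and positive-control wells, cultures failing plate quality control were left out, and four-parameter logistic fits were applied. Relative IC50 and drug sensitivity score were derived from the fits, with IC50 censored at the top concentration.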

[20] = test system: HS-PSS; assay: as above
In short: as §2

[21] = test system: S1507-2; assay: as above
In short: as §2

[22] = test system: ST8814; assay: as above
In short: as §2

[23] = test system: HSC2 (primary human Schwann cells); assay: as above
In short: as §2

[24] = test system: HSC1 (primary human Schwann cells); assay: as above
In short: as §2

| SMILES | % inhibition [1] [%] | % inhibition [2] [%] | % inhibition [3] [%] | % inhibition [4] [%] | % inhibition [5] [%] | % inhibition [6] [%] | % inhibition [7] [%] | % inhibition [8] [%] | % inhibition [9] [%] | drug sensitivity score [10] | drug sensitivity score [11] | drug sensitivity score [12] | drug sensitivity score [13] | drug sensitivity score [14] | drug sensitivity score [15] | drug sensitivity score [16] | drug sensitivity score [17] | drug sensitivity score [18] | drug sensitivity score [19] | drug sensitivity score [20] | drug sensitivity score [21] | drug sensitivity score [22] | drug sensitivity score [23] | drug sensitivity score [24] |
| --- | --- | --- | --- | --- | --- | --- | --- | --- | --- | --- | --- | --- | --- | --- | --- | --- | --- | --- | --- | --- | --- | --- | --- | --- |
| O=P1(N(CCCl)CCCl)NCCCO1 (configuration not stated) [Cyclophosphamide] (max concentration tested 40000 nM) | -1.7 | -7.77 | -8.093 ± 0.056 | -15 | -7.33 ± 17 | 3.85 | -3.77 | -1.29 | 8.38 | 0 | 0 | 0 | 0 | 0 | 0 | 0 | 0 | 0 | 0 | 0 | 2.5 ± 3.5 | 0 | 0 | 0 |
| COc1cc2ncnc(Nc3ccc(F)c(Cl)c3)c2cc1OCCCN1CCOCC1 [Gefitinib] (max concentration tested 10000 nM) | 53.6 | 60.2 | 39.9 ± 12 | 61.4 | 49.1 ± 12 | 46.2 | 68.4 | 54.7 | 46.2 | 2.37 | 4.94 | 1.43 ± 0.69 | 5.27 | 2.3 ± 1.1 | 5.06 | 3.34 | 3.41 | 2.58 | 0.896 | 0 | 2.49 ± 3.5 | 5.95 | 0 | 0 |
| CCN1CCN(c2ccc(Nc3cc(N(C)C(=O)Nc4c(Cl)c(OC)cc(OC)c4Cl)ncn3)cc2)CC1 [NVP-BGJ398] (max concentration tested 1000 nM) | -2.71 | 0.34 | 0.872 ± 0.61 | 9.97 | 6.59 ± 6.9 | 2.47 | 14.3 | 5.81 | 4.11 | 0 | 0 | 0 | 0 | 0.00445 ± 0.0063 | 0 | 0.135 | 0 | 0 | 0 | 0 | 0.143 ± 0.2 | 0 | 0 | 0 |
| CC(C)C[C@H](NC(=O)[C@H](Cc1ccccc1)NC(=O)c1cnccn1)B(O)O [Bortezomib] (max concentration tested 1000 nM) | 102 | 101 | 102.5 ± 0.77 | 93.5 | 103.6 ± 0.17 | 100 | 103 | 102 | 101 | 23.7 | 30 | 27.4 ± 0.87 | 14.4 | 24.458 ± 0.016 | 24.2 | 26.3 | 25.7 | 25.6 | 23.5 | 7.75 | 30.1 ± 4.9 | 24.3 | 20.1 | 19.8 |
| Cc1c(N)nc([C@H](CC(N)=O)NC[C@H](N)C(N)=O)nc1C(=O)N[C@H](C(=O)N[C@H](C)[C@@H](O)[C@H](C)C(=O)N[C@H](C(=O)NCCc1nc(-c2nc(C(=O)NCCC[S+](C)C)cs2)cs1)[C@@H](C)O)[C@@H](O[C@@H]1O[C@@H](CO)[C@@H](O)[C@H](O)[C@@H]1O[C@H]1O[C@H](CO)[C@@H](O)[C@H](OC(N)=O)[C@@H]1O)c1c[nH]cn1 [Bleomycin] (max concentration tested 10000 nM) | 62.1 | 72.1 | 68.4 ± 1.7 | 53.2 | 29.9 ± 7.5 | 79.5 | 46.4 | 54.5 | 50.4 | 5.46 | 8.47 | 5 ± 1.1 | 5.94 | 2.36 ± 0.43 | 10.9 | 4.1 | 8.81 | 6.33 | 4.43 | 0.34 | 1.29 ± 0.61 | 2.35 | 1.66 | 0 |
| C/C(=C\c1csc(C)n1)[C@@H]1C[C@@H]2O[C@]2(C)CCC[C@H](C)[C@H](O)[C@@H](C)C(=O)C(C)(C)[C@@H](O)CC(=O)O1 [Patupilone] (max concentration tested 1000 nM) | 96.8 | 91.9 | 92.6 ± 0.95 | 42.2 | 80.9 ± 0.77 | 78.1 | 84.4 | 73 | 70 | 36.5 | 32.7 | 37.7 ± 0.67 | 17.9 | 24.4 ± 1.7 | 31 | 28.4 | 25.2 | 29.1 | 36.6 | 0 | 21.9 ± 2.8 | 23.9 | 18.8 | 11.5 |
| CCc1cncnc1N1CCN(Cc2nc3ccc(C(F)(F)F)cc3[nH]2)CC1 (max concentration tested 10000 nM) | 19.7 | 47.6 | 13.2 ± 8.4 | 64 | 9.77 ± 2.6 | 22.3 | 13.6 | 21.4 | 13.9 | 1.12 | 2.07 | 0.305 ± 0.43 | 4.22 | 0.267 ± 0.38 | 0.69 | 0.171 | 0.531 | 0.31 | 0 | 0 | 0 | 0 | 0 | 0 |
| N#Cc1ccc(C(c2ccc(C#N)cc2)n2cncn2)cc1 [Letrozole] (max concentration tested 10000 nM) | 3.15 | 14.7 | -4.84 ± 2.2 | 10.6 | -4.25 ± 4.2 | 7.25 | -5.31 | 3.35 | 1.16 | 0 | 0.34 | 0 | 0 | 0 | 0 | 0 | 0 | 0 | 0 | 0 | 0 | 0 | 0 | 0 |
| Oc1nc(-c2ccc(C(F)(F)F)cc2)nc2c1CSCC2 [XAV-939] (max concentration tested 10000 nM) | 16.5 | 7.73 | 6.97 ± 4 | 23 | 33.8 ± 7.3 | 23.1 | 0.935 | 27.6 | 37 | 0.217 | 0 | 0 | 1.55 | 2.76 ± 0.27 | 2.41 | 0 | 4.89 | 6.05 | 0 | 0 | 1.83 ± 2.6 | 0 | 0 | 0 |
| CO[C@H]1[C@@H](N(C)C(=O)c2ccccc2)C[C@@H]2O[C@@]1(C)n1c3ccccc3c3c4c(c5c6ccccc6n2c5c31)C(=O)NC4 [Midostaurin] (max concentration tested 10000 nM) | 71.8 | 73.6 | 71.9 ± 4.6 | 56.4 | 90.3 ± 1 | 52.8 | 85.2 | 95.5 | 93.2 | 11.5 | 12.2 | 10.7 ± 0.49 | 9.08 | 16.5 ± 1.1 | 11.4 | 13.9 | 20.7 | 21.6 | 13.4 | 0 | 6.96 ± 1.9 | 11.1 | 19.4 | 11.9 |
| N#CCNC(=O)c1ccc(-c2ccnc(Nc3ccc(N4CCOCC4)cc3)n2)cc1 [Momelotinib] (max concentration tested 10000 nM) | 58.8 | 60.3 | 74.7 ± 4.7 | 49.2 | 67.1 ± 11 | 55.4 | 41.6 | 81.2 | 76.8 | 3.24 | 5.45 | 4.7 ± 0.25 | 3.21 | 3.09 ± 0.61 | 5.7 | 3.16 | 8.06 | 7.64 | 0 | 0 | 0.683 ± 0.4 | 0 | 1.87 | 0.946 |
| COc1cc(Nc2c(C#N)cnc3cc(OCCCN4CCN(C)CC4)c(OC)cc23)c(Cl)cc1Cl [Bosutinib] (max concentration tested 10000 nM) | 95.4 | 100 | 94.85 ± 0.58 | 99.8 | 96.4 ± 2 | 100 | 96.5 | 86 | 80 | 9.81 | 9.19 | 9.09 ± 1.4 | 5.17 | 9.52 ± 0.072 | 6.63 | 9.35 | 9.52 | 7.12 | 5.46 | 5.37 | 6.25 ± 1.3 | 7.01 | 3.59 | 1.14 |
| Cc1ccc(-n2nc(C(C)(C)C)cc2NC(=O)Nc2ccc(OCCN3CCOCC3)c3ccccc23)cc1 [Doramapimod] (max concentration tested 10000 nM) | 1.72 | 55.8 | 12.1 ± 6.3 | 68.6 | 0.115 ± 1.9 | 80.8 | -7.45 | 32.9 | 26.7 | 0 | 3.93 | 0.326 ± 0.46 | 6.23 | 0 | 10.5 | 0 | 2.53 | 1.15 | 0 | 1.28 | 1.81 ± 0.51 | 0 | 0 | 0 |
